Molecular target: T1, glucokinase (Homo sapiens, UniProt P35557)
T1 sequence (P35557 1-466 isoform P35557-2): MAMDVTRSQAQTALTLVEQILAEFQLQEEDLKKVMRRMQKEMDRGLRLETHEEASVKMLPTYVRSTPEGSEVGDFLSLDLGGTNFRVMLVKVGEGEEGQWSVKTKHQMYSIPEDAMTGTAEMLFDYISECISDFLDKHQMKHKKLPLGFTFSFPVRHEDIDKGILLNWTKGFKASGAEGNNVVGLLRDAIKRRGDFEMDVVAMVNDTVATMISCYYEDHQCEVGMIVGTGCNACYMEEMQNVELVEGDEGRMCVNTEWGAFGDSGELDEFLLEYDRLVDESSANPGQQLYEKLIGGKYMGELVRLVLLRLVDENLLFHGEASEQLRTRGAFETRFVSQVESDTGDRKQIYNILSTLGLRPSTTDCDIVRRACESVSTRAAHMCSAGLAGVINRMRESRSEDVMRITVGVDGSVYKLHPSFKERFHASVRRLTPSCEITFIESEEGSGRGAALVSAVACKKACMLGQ
Assay: glucokinase activity assay of compounds found by pharmacophore screening (activation relative to control)
Type: biochemical
Conditions: glucose 2.5 M, ligand 10 μM; activity of glucokinase is 100% in the case of control
Text: Library compounds were screened using, as research conditions, pharmacophore of a hydrogen bond acceptor and hydrogen bond donor generated respectively from NH and CO of a main chain of Arg63, hydrophobic pharmacophore formed in a space corresponding to a phenyl group of an aniline part of a ligand forming a complex, and the protein surface made based on the structure of a protein, by using a software UNITY (manufactured by Tripos), and the following compound 4 and compound 5 were obtained and assayed, to confirm activities of 780% and 560%. An activity of 780% means that when the activity of glucokinase is 100% in the case of control, the activity is enhanced up to 780% by these compound (using glucose 2.5 M, and ligand 10 μM). [drawing 15]

`CCOC(=O)c1csc(NC(=O)c2cc(Sc3ccncc3)ccc2N)n1` [compound 5] was tested, and the “activity of glucokinase (control = 100%)” value was 560%.
In the case of `Nc1ccc(Oc2ccccc2)cc1C(=O)Nc1nccs1` [compound 4], the “activity of glucokinase (control = 100%)” value was 780%.
